Activity calls are given as the source filed them. The rule behind the calls is not given here.
Assays:
[1] = system: MGC-803; assay: Induction of cell cycle arrest in human MGC-803 cells assessed as cells at G2/M phase at 15 uM incubated for 36 hrs by PI staining based flow cytometry (reference value: 20.6%); format: functional
[2] = system: PC-3; assay: Induction of cell cycle arrest in human PC-3 cells assessed as cells at G2/M phase at 15 uM incubated for 12 hrs by PI staining based flow cytometry (reference value: 21.4%); format: functional
[3] = system: PC-3; assay: Inhibition of cell migration in human PC-3 cells incubated for 48 hrs by wound healing assay; format: functional, cell-based; conditions: dose 2.5-7.5 µM
[4] = target: Cyclin-dependent kinases regulatory subunit 1/S-phase kinase-associated protein 2 (Homo sapiens) (UniProt P61024+Q13309); assay: Inhibition of GST-tagged SKP2 (unknown origin) binding to His6-tagged CKS1 (unknown origin) at 50 uM preincubated with SKP2 for 10 mins followed by CKS1 addition for 20 mins and measured after by HTRF method relative to control; format: protein assay; conditions: time 30.0 min
[5] = system: MGC-803; assay: Downregulation of SKP2 protein level in human MGC-803 cells incubated for 48 hrs by Western blotting analysis; format: functional, cell-based; conditions: dose 5-15 µM
[6] = system: MGC-803; assay: Induction of cell cycle arrest in human MGC-803 cells assessed as cells at S phase at 15 uM incubated for 36 hrs by PI staining based flow cytometry (reference value: 18.2%); format: functional
[7] = system: PC-3; assay: Induction of cell cycle arrest in human PC-3 cells assessed as cells at G2/M phase at 15 uM incubated for 24 hrs by PI staining based flow cytometry (reference value: 21.4%); format: functional
[8] = AUClast in Sprague-Dawley rat at 1 mg/kg, iv measured upto 24 hrs by LC/MS-MS analysis; format: ADME, organism-based; conditions: in vivo
[9] = system: PC-3; assay: Upregulation of p21 protein expression in human PC-3 cells at 15 uM by Western blotting analysis; format: functional, cell-based; conditions: time 6-48 hrs, TDE = time-dependent effect
[10] = system: PC-3; assay: Inhibition of colony formation in human PC-3 cells at 3 uM incubated for 10 days by crystal violet staining based inverted microscopic analysis; format: functional, cell-based; conditions: time 10.0 day
[11] = system: PC-3; assay: Induction of cell cycle arrest in human PC-3 cells assessed as cells at S phase at 15 uM incubated for 12 hrs by PI staining based flow cytometry (reference value: 22.9%); format: functional
[12] = system: MGC-803; assay: Induction of cell cycle arrest in human MGC-803 cells assessed as cells at G2/M phase at 15 uM incubated for 6 hrs by PI staining based flow cytometry (reference value: 20.8%); format: functional
[13] = system: MGC-803; assay: Induction of cell cycle arrest in human MGC-803 cells assessed as cells at G0/G1 phase at 15 uM incubated for 48 hrs by PI staining based flow cytometry (reference value: 57.9%); format: functional
[14] = system: PC-3; assay: Inhibition of cell proliferation in human PC-3 cells at 2 to 50 uM by MTT assay; format: functional, cell-based; conditions: dose 2-50 µM, time 24-72 hrs, TDE = time-dependent effect
[15] = system: PC-3; assay: Induction of cell cycle arrest in human PC-3 cells assessed as cells at G2/M phase at 7.5 uM incubated for 36 hrs by PI staining based flow cytometry (reference value: 21.3%); format: functional
[16] = system: MGC-803; assay: Inhibition of colony formation in human MGC-803 cells at 3 uM incubated for 10 days by crystal violet staining based inverted microscopic analysis; format: functional, cell-based; conditions: time 10.0 day
[17] = system: MGC-803; assay: Induction of cell cycle arrest in human MGC-803 cells assessed as cells at G0/G1 phase at 15 uM incubated for 36 hrs by PI staining based flow cytometry (reference value: 57.1%); format: functional
[18] = system: MGC-803; assay: Induction of cell cycle arrest in human MGC-803 cells assessed as cells at S phase at 15 uM incubated for 24 hrs by PI staining based flow cytometry (reference value: 19.6%); format: functional
[19] = system: PC-3; assay: Inhibition of cell proliferation in human PC-3 cells incubated for 24 to 72 hrs by MTT assay; format: functional, cell-based; conditions: dose 2-50 µM, time 24-72 hrs
[20] = target: S-phase kinase-associated protein 2 (Homo sapiens) (UniProt Q13309); assay: Binding affinity to SKP2 in human MGC-803 cells assessed as increase in thermal stability at 57 to 68 degreeC incubated for 4 hrs by CETSA; format: cell-based
[21] = system: PC-3; assay: Induction of cell cycle arrest in human PC-3 cells assessed as cells at G0/G1 phase at 7.5 uM incubated for 36 hrs by PI staining based flow cytometry (reference value: 54.5%); format: functional
[22] = system: MGC-803; assay: Induction of cell cycle arrest in human MGC-803 cells assessed as cells at G0/G1 phase at 7.5 uM incubated for 36 hrs by PI staining based flow cytometry (reference value: 57.1%); format: functional
[23] = Toxicity against NOD-SCID mouse assessed as change in spleen morphology at 25 to 50 mg/kg, IG administered for 21 days by H and E staining based assay; format: organism-based; conditions: in vivo, po, 504 h, dose 25-50 mg/kg, time 21 day
[24] = Toxicity against NOD-SCID mouse assessed as change in kidney morphology at 25 to 50 mg/kg, IG administered for 21 days by H and E staining based assay; format: organism-based; conditions: in vivo, po, 504 h, dose 25-50 mg/kg, time 21 day
[25] = MRT(infinity) in Sprague-Dawley rat at 1 mg/kg, iv measured upto 24 hrs by LC/MS-MS analysis; format: ADME, organism-based; conditions: in vivo
[26] = system: PC-3; assay: Inhibition of colony formation in human PC-3 cells incubated for 10 days by crystal violet staining based inverted microscopic analysis; format: functional, cell-based; conditions: dose 1-3 µM, time 10.0 day
[27] = system: PC-3; assay: Inhibition of DNA synthesis in human PC-3 cells incubated for 24 hrs by EdU staining based fluorescence microscopic analysis; format: functional, cell-based
[28] = Volume of distribution at steady state in Sprague-Dawley rat at 1 mg/kg, iv measured upto 24 hrs by LC/MS-MS analysis; format: ADME, organism-based; conditions: in vivo
[29] = system: MGC-803; assay: Inhibition of colony formation in human MGC-803 cells incubated for 10 days by crystal violet staining based inverted microscopic analysis; format: functional, cell-based; conditions: dose 1-3 µM, time 10.0 day
[30] = AUClast in Sprague-Dawley rat at 50 mg/kg, po measured upto 24 hrs by LC/MS-MS analysis; format: ADME, organism-based; conditions: in vivo
[31] = system: MGC-803; assay: Antitumor activity against human MGC-803 cells xenografted in NOD-SCID mouse assessed as tumor growth inhibition at 50 mg/kg, IG administered for 21 days; format: functional; conditions: MGC-803, po, 504 h, time 21 day, read-out: TGI
[32] = target: Cyclin-dependent kinases regulatory subunit 1/S-phase kinase-associated protein 2 (Homo sapiens, UniProt Q13309); assay: Inhibition of GST-tagged SKP2 (unknown origin) binding to His6-tagged CKS1 (unknown origin) preincubated with SKP2 for 10 mins followed by CKS1 addition for 20 mins and measured after by HTRF method; format: protein assay
[33] = system: MGC-803; assay: Induction of cell cycle arrest in human MGC-803 cells assessed as cells at G2/M phase at 15 uM incubated for 12 hrs by PI staining based flow cytometry (reference value: 20.8%); format: functional
[34] = system: MGC-803; assay: Induction of cell cycle arrest in human MGC-803 cells assessed as cells at G2/M phase at 15 uM incubated for 24 hrs by PI staining based flow cytometry (reference value: 20.8%); format: functional
[35] = system: PC-3; assay: Induction of cell cycle arrest in human PC-3 cells assessed as cells at G0/G1 phase at 5 uM incubated for 36 hrs by PI staining based flow cytometry (reference value: 54.5%); format: functional

Cyclin-dependent kinases regulatory subunit 1/S-phase kinase-associated protein 2, sequence (P61024 whole entry): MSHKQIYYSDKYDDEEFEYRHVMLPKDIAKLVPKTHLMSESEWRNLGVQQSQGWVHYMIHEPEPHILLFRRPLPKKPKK
Cyclin-dependent kinases regulatory subunit 1/S-phase kinase-associated protein 2, sequence (Q13309 whole entry): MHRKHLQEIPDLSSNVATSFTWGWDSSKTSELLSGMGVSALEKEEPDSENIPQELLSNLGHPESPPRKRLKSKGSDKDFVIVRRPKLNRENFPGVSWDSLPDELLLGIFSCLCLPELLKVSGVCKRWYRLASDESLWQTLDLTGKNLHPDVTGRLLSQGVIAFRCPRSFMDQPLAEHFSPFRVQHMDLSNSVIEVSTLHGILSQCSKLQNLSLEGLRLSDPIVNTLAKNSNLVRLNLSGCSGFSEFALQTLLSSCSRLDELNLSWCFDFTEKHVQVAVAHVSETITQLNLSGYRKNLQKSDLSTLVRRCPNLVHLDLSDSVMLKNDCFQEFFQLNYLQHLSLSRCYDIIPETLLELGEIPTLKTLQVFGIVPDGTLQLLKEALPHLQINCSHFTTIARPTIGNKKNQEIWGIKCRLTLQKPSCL
Cyclin-dependent kinases regulatory subunit 1/S-phase kinase-associated protein 2 (Homo sapiens), sequence (P61024 2-79 limits assumed): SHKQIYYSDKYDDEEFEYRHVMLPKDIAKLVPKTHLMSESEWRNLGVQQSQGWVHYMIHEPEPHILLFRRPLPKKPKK
Cyclin-dependent kinases regulatory subunit 1/S-phase kinase-associated protein 2 (Homo sapiens), sequence (Q13309 whole entry partner): as the sequence (Q13309 whole entry) above
S-phase kinase-associated protein 2 (Homo sapiens), sequence (Q13309 whole entry): as above

inhibition [4]: 73.7% | AUC(0-t) at 24 h [8]: 699 ng·h/mL | Activity [20]: Active | MRT [25]: 6.28 h | Vdss [28]: 8.87 L/kg | AUC(0-t) at 24 h [30]: 906 ng·h/mL | IC50 [32]: 4.86 µM
Compound: COc1ccc(-c2cc(C)nc3nc(SCc4ccc(Br)cc4)nn23)c(OC)c1
Activity [1]: 14.4% | Activity [2]: 18.5% | inhibition [3]: Dose-Dependent Effect | Activity [5]: Dose-Dependent Effect | Activity [6]: 44.3% | Activity [7]: 21.1% | Activity [9]: Tde | inhibition [10]: Active | Activity [11]: 32.6% | Activity [12]: 21.9% | Activity [13]: 40.9% | inhibition [14]: Tde | Activity [15]: 21.9% | inhibition [16]: Active | Activity [17]: 39.3% | Activity [18]: 38.9% | inhibition [19]: Dose-Dependent Effect | Activity [21]: 39% | Activity [22]: 45.1% | Activity [23]: Non-Toxic | Activity [24]: Non-Toxic | inhibition [26]: Dose-Dependent Effect | inhibition [27]: Dose-Dependent Effect | inhibition [29]: Dose-Dependent Effect | inhibition in vivo at 50 mg/kg [31]: 76.9% | Activity [33]: 21.6% | Activity [34]: 16.1% | Activity [35]: 46.9%
